Results: US20100267561A1, “HERBICIDAL PYRIDAZINONE DERIVATIVES” (priority 2007, published 2010)

Key:
Assay type in all cases: in vivo
[1] = system: ducksalad (Heteranthera limosa); experiment: Test B flooded paddy test plant response
Summary of the method: (§1)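 Paddy-water application to 2-leaf plants in pots held under 3 cm of flooding; response is a 0–100 visual control rating against controls after 13 to 15 days, and a dash marks a missing result.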

[2] = system: rice (Oryza sativa); experiment: Test B flooded paddy test plant response
Summary of the method: as §1

[3] = system: barnyardgrass (Echinochloa crus-galli); experiment: Test B flooded paddy test plant response
Summary of the method: as §1

[4] = system: umbrella sedge (Cyperus difformis); experiment: Test B flooded paddy test plant response
Summary of the method: as §1

[5] = system: blackgrass (Alopecurus myosuroides); experiment: Test A pre-/postemergence plant response
Summary of the method: (§2)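 Ratings are visual, 0–100, where 100 means complete control and 0 no effect, taken roughly 10 days after treatment by comparison with untreated controls. Formulation: non-phytotoxic solvent mixture with surfactant.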

[6] = system: canarygrass (Phalaris minor); experiment: Test A pre-/postemergence plant response
Summary of the method: as §2

[7] = system: wheat (Triticum aestivum); experiment: Test A pre-/postemergence plant response
Summary of the method: as §2

[8] = system: pigweed (Amaranthus retroflexus); experiment: Test A pre-/postemergence plant response
Summary of the method: as §2

[9] = system: large crabgrass (Digitaria sanguinalis); experiment: Test A pre-/postemergence plant response
Summary of the method: as §2

[10] = system: corn (Zea mays); experiment: Test A pre-/postemergence plant response
Summary of the method: as §2

[11] = system: barnyardgrass (Echinochloa crus-galli); experiment: Test A pre-/postemergence plant response
Summary of the method: as §2

[12] = system: giant foxtail (Setaria faberi); experiment: Test A pre-/postemergence plant response
Summary of the method: as §2

[13] = Flood (flooded paddy test), 250 g ai/ha, scale 0 to 100, 0 no effect, 100 complete control
[14] = Flood, 62 g ai/ha, scale 0 to 100
[15] = Postemergence, 31 g ai/ha, 0 to 100 scale (0 no effect, 100 complete control)
[16] = Postemergence, 125 g ai/ha, 0 to 100 scale, 0 no effect, 100 complete control
[17] = Preemergence, 31 g ai/ha, 0 to 100 scale, 0 is no effect, 100 is complete control
[18] = Preemergence, 125 g ai/ha, 0 to 100 scale (0 no effect, 100 complete control)

Structure (SMILES): Cc1cn(-c2ccc(Cl)cn2)nc1-c1c(O)cnn(C)c1=O [Compound 84]
- Plant response rating, Ducksalad [1, 13]: 0
- Plant response rating, Ducksalad [1, 14]: 0
- Plant response rating, Rice [2, 13]: 0
- Plant response rating, Rice [2, 14]: 0
- Plant response rating, Barnyardgrass [3, 13]: 0
- Plant response rating, Barnyardgrass [3, 14]: 0
- Plant response rating, Sedge, Umbrella [4, 13]: 0
- Plant response rating, Sedge, Umbrella [4, 14]: 0
- Plant response rating, Blackgrass [5, 15]: 0
- Plant response rating, Blackgrass [5, 16]: 0
- Plant response rating, Blackgrass [5, 17]: 0
- Plant response rating, Blackgrass [5, 18]: 0
- Plant response rating, Canarygrass [6, 15]: 0
- Plant response rating, Canarygrass [6, 16]: 0
- Plant response rating, Canarygrass [6, 17]: 0
- Plant response rating, Canarygrass [6, 18]: 0
- Plant response rating, Wheat [7, 15]: 0
- Plant response rating, Wheat [7, 16]: 0
- Plant response rating, Wheat [7, 17]: 0
- Plant response rating, Wheat [7, 18]: 0
- Plant response rating, Pigweed [8, 15]: 0
- Plant response rating, Pigweed [8, 16]: 0
- Plant response rating, Pigweed [8, 17]: 0
- Plant response rating, Pigweed [8, 18]: 0
- Plant response rating, Crabgrass, Large [9, 15]: 0
- Plant response rating, Crabgrass, Large [9, 16]: 10
- Plant response rating, Crabgrass, Large [9, 17]: 0
- Plant response rating, Crabgrass, Large [9, 18]: 0
- Plant response rating, Corn [10, 15]: 0
- Plant response rating, Corn [10, 16]: 0
- Plant response rating, Corn [10, 17]: 0
- Plant response rating, Corn [10, 18]: 0
- Plant response rating, Barnyardgrass [11, 15]: 0
- Plant response rating, Barnyardgrass [11, 16]: 0
- Plant response rating, Barnyardgrass [11, 17]: 0
- Plant response rating, Barnyardgrass [11, 18]: 0
- Plant response rating, Foxtail, Giant [12, 15]: 0
- Plant response rating, Foxtail, Giant [12, 16]: 10
- Plant response rating, Foxtail, Giant [12, 17]: 0
- Plant response rating, Foxtail, Giant [12, 18]: 0
